Reference: patent US20250154173A1 (Merck Sharp & Dohme LLC, priority 2023, published 2025)

Target: T1, GST-RIPK1 (recombinant GST-RIPK1 kinase domain (residues 1-327)) (Homo sapiens, UniProt Q13546)
T1 construct: recombinant GST-RIPK1 kinase domain (residues 1-327) enzyme produced from baculovirus-transfected Sf21 cells; host or cells: baculovirus-transfected Sf21 insect cells
T1 sequence (Q13546 1-327): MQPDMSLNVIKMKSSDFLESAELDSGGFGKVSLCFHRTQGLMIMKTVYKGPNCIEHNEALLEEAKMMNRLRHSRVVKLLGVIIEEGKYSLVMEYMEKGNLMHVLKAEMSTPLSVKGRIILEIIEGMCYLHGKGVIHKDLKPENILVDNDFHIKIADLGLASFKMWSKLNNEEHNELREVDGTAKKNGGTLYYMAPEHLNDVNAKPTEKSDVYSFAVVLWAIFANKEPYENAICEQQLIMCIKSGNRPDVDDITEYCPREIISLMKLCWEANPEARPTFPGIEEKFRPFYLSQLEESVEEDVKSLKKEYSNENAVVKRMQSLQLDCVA
Assay: RIPK1-ADP-Glo Enzymatic Assay
Type: biochemical
Settings: ten-point titration, top compound concentration of 100000 nM; 25 nM GST-RIPK1, 300 μM ATP, 3 μM dephosphorylated-MBP; 30 min pre-incubation, 150 min reaction
Outline: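 ADP-Glo luminescence quantifies ADP formed over 150 minutes by 25 nM Sf21-produced GST-RIPK1 (1-327) using 300 μM ATP and 3 μM dephosphorylated MBP, following 30-minute compound preincubation at 1% DMSO. Ten-point 1:3 series from 100000 nM gave EC50 via four-parameter sigmoidal regression.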

Compound | EC50 [µM]
O=C1N2C(CC[C@H]2c2cnccn2)OC12CC(OCc1ccc(Cn3ccnc3)cc1)C2 (stereo partly drawn) [Example 18.74, (5′S)-3-({4-[(1H-imidazol-1-yl)methyl]phenyl}methoxy)-5′-(pyrazin-2-yl)tetrahydro-3′H-spiro[cyclobutane-1,2′-pyrrolo[2,1-b][1,3]oxazol]-3′-one] | 0.092
O=C1N2C(CC[C@H]2c2cnccn2)OC12CC(OCc1ccc3nc(C(F)(F)F)sc3c1)C2 (stereo partly shown) [Example 18.48] | 0.031
O=C1N2[C@@H](CC[C@H]2c2cnccn2)OC12CC(OCc1cccc(F)c1)C2 (single isomer, unassigned) [Example 22.8] | 0.035
N#Cc1ccncc1COC1CC2(C1)OC1CC[C@@H](c3cnccn3)N1C2=O (stereo partly drawn) [Example 18.45, 3-({[(5′S)-3′-oxo-5′-(pyrazin-2-yl)tetrahydro-3′H-spiro[cyclobutane-1,2′-pyrrolo[2,1-b][1,3]oxazol]-3-yl]oxy}methyl)pyridine-4-carbonitrile] | 0.159
N#CCCc1ccc(COC2CC3(C2)OC2CC[C@@H](c4cnccn4)N2C3=O)cc1 (stereo partly drawn) [Example 18.47, 3-[4-({[(5′S)-3′-oxo-5′-(pyrazin-2-yl)tetrahydro-3′H-spiro[cyclobutane-1,2′-pyrrolo[2,1-b][1,3]oxazol]-3-yl]oxy}methyl)phenyl]propanenitrile] | 0.06
O=C1N2C(CC[C@H]2c2cnccn2)OC12CC(OCc1cccc3nccn13)C2 (stereo partly drawn) [Example 18.36, (5′S)-3-[(imidazo[1,2-a]pyridin-5-yl)methoxy]-5′-(pyrazin-2-yl)tetrahydro-3′H-spiro[cyclobutane-1,2′-pyrrolo[2,1-b][1,3]oxazol]-3′-one] | 0.028
NC(=O)c1ccnc(O[C@H]2C[C@@]3(C2)O[C@@H]2CC[C@@H](c4ccccc4)N2C3=O)c1 [Example 10.5, 2-(((1r,3R,5′S,7a′R)-3′-oxo-5′-phenyltetrahydro-3′H-spiro[cyclobutane-1,2′-pyrrolo[2,1-b]oxazol]-3-yl)oxy)isonicotinamide] | 0.02
O=C1N2[C@@H](CC[C@H]2c2cc(F)cc(F)c2)O[C@]12C[C@H](Oc1ncnc3occc13)C2 [Example 9.31, (1r,3R,5′S,7a′R)-5′-(3,5-difluorophenyl)-3-[(furo[2,3-d]pyrimidin-4-yl)oxy]tetrahydro-3′H-spiro[cyclobutane-1,2′-pyrrolo[2,1-b][1,3]oxazol]-3′-one] | 0.009
O=C1N2C(CC[C@H]2c2cnccn2)OC12CC(OCc1cc(Cl)ccc1-c1cnco1)C2 (stereo partly drawn) [Example 18.82, (5′S)-3-{[5-chloro-2-(1,3-oxazol-5-yl)phenyl]methoxy}-5′-(pyrazin-2-yl)tetrahydro-3′H-spiro[cyclobutane-1,2′-pyrrolo[2,1-b][1,3]oxazol]-3′-one] | 0.099
COc1cncc(OC2CC3(C2)O[C@@H]2CC[C@@H](c4ccccc4)N2C3=O)c1 (stereo partly drawn) [Example 8.6, (5′S,7a′R)-3-[(5-methoxypyridin-3-yl)oxy]-5′-phenyltetrahydro-3′H-spiro[cyclobutane-1,2′-pyrrolo[2,1-b][1,3]oxazol]-3′-one] | 0.065
O=C1N2C(CC[C@H]2c2cnccn2)OC12CC(OCc1cnc3nccn3c1)C2 (stereo partly drawn) [Example 18.46, (5′S)-3-[(imidazo[1,2-a]pyrimidin-6-yl)methoxy]-5′-(pyrazin-2-yl)tetrahydro-3′H-spiro[cyclobutane-1,2′-pyrrolo[2,1-b][1,3]oxazol]-3′-one] | 0.128
COCCOc1ccc(COC2CC3(C2)OC2CC[C@@H](c4cnccn4)N2C3=O)cc1 (stereo partly drawn) [Example 18.99, (5′S)-3-{[4-(2-methoxyethoxy)phenyl]methoxy}-5′-(pyrazin-2-yl)tetrahydro-3′H-spiro[cyclobutane-1,2′-pyrrolo[2,1-b][1,3]oxazol]-3′-one] | 0.205
C[C@@H](OC1CC2(C1)O[C@@H]1CC[C@@H](c3cc(F)cc(F)c3)N1C2=O)c1ccc(F)cn1 (single isomer, unassigned) [Example 12.2, (1R,3R,5′S,7a′R)-5′-(3,5-difluorophenyl)-3-((S or R)-1-(5-fluoropyridin-2-yl)ethoxy)tetrahydro-3′H-spiro[cyclobutene-1,2′-pyrrolo[2,1-b]oxazol]-3′-one] | 0.155
O=C1N2C(CC[C@H]2c2cnccn2)OC12CC(OCc1cc(-n3ccnc3)ccn1)C2 (stereo partly shown) [Example 18.87] | 0.583
O=C1N2[C@@H](CC[C@H]2c2cc(F)cc(F)c2)O[C@]12C[C@H](Oc1cccn3nnnc13)C2 [Example 9.25, (1r,3R,5′S,7a′R)-5′-(3,5-difluorophenyl)-3-[(tetrazolo[1,5-a]pyridin-8-yl)oxy]tetrahydro-3′H-spiro[cyclobutane-1,2′-pyrrolo[2,1-b][1,3]oxazol]-3′-one] | 0.21
O=C1N2[C@@H](CC[C@H]2c2cnccn2)OC12CC(OCc1ccccc1)C2 (stereo partly drawn) [Example 4.2, ((1s),3R,5′S,7a′R)-3-(benzyloxy)-5′-(pyrazin-2-yl)tetrahydro-3′H-spiro[cyclobutane-1,2′-pyrrolo[2,1-b]oxazol]-3′-one] | 0.024
N#Cc1cccc(F)c1COC1CC2(C1)OC1CC[C@@H](c3cnccn3)N1C2=O (stereo partly drawn) [Example 18.51, 3-fluoro-2-({[(5′S)-3′-oxo-5′-(pyrazin-2-yl)tetrahydro-3′H-spiro[cyclobutane-1,2′-pyrrolo[2,1-b][1,3]oxazol]-3-yl]oxy}methyl)benzonitrile] | 0.21
N#Cc1cc(OC2CC3(C2)O[C@@H]2CC[C@@H](c4cc(F)cc(F)c4)N2C3=O)ncc1F (single isomer, unassigned) [Example 17.1, 2-((((Is or r),3S,5′S,7a′R)-5′-(3,5-difluorophenyl)-3′-oxotetrahydro-3′H-spiro[cyclobutane-1,2′-pyrrolo[2,1-b]oxazol]-3-yl)oxy)-5-fluoroisonicotinonitrile] | 0.086
CS(=O)(=O)c1ccc(COC2CC3(C2)OC2CC[C@@H](c4cnccn4)N2C3=O)cc1 (stereo partly drawn) [Example 18.67, (5′S)-3-{[4-(methylsulfonyl)phenyl]methoxy}-5′-(pyrazin-2-yl)tetrahydro-3′H-spiro[cyclobutane-1,2′-pyrrolo[2,1-b][1,3]oxazol]-3′-one] | 0.088
O=C1N2[C@@H](CC[C@H]2c2cc(F)cc(F)c2)O[C@]12C[C@H](Oc1nccc3nccn13)C2 [Example 9.21, (1r,3R,5′S,7a′R)-5′-(3,5-difluorophenyl)-3-[(imidazo[1,2-c]pyrimidin-5-yl)oxy]tetrahydro-3′H-spiro[cyclobutane-1,2′-pyrrolo[2,1-b][1,3]oxazol]-3′-one] | 0.014
O=C1N2C(CC[C@H]2c2cnccn2)OC12CC(OCc1ccc(OC3CCOCC3)nc1)C2 (stereo partly drawn) [Example 18.106, (5′S)-3-({6-[(oxan-4-yl)oxy]pyridin-3-yl}methoxy)-5′-(pyrazin-2-yl)tetrahydro-3′H-spiro[cyclobutane-1,2′-pyrrolo[2,1-b][1,3]oxazol]-3′-one] | 0.569
O=C1N2[C@@H](CC[C@H]2c2ccccc2)O[C@]12C[C@H](Oc1ncnn3cccc13)C2 [Example 9.24, (1r,3R,5′S,7a′R)-5′-phenyl-3-[(pyrrolo[2,1-f][1,2,4]triazin-4-yl)oxy]tetrahydro-3′H-spiro[cyclobutane-1,2′-pyrrolo[2,1-b][1,3]oxazol]-3′-one] | 0.011
O=C1N2[C@@H](CC[C@H]2c2ccccc2)OC12CCC(OCc1ccccc1)CC2 (single isomer, unassigned) [Example 1.2, ((1s or r),4R,5′S,7a′R)-4-(benzyloxy)-5′-phenyltetrahydro-3′H-spiro[cyclohexane-1,2′-pyrrolo[2,1-b]oxazol]-3′-one] | 0.138
N#Cc1cc(O[C@H]2C[C@]3(C2)O[C@@H]2CC[C@@H](c4cc(F)cc(F)c4)N2C3=O)ncn1 [Example 9.12, 6-(((1s,3S,5′S,7a′R)-5′-(3,5-difluorophenyl)-3′-oxotetrahydro-3′H-spiro[cyclobutane-1,2′-pyrrolo[2,1-b]oxazol]-3-yl)oxy)pyrimidine-4-carbonitrile] | 0.446
O=C1N2[C@@H](CC[C@H]2c2cnccn2)OC12CC(OCc1cccc(F)c1)C2 (single isomer, unassigned) [Example 22.5] | 0.015
N#CC1(c2ccc(COC3CC4(C3)OC3CC[C@@H](c5cnccn5)N3C4=O)c(Cl)c2)CC1 (stereo partly drawn) [Example 18.29, 1-[3-chloro-4-({[(5′S)-3′-oxo-5′-(pyrazin-2-yl)tetrahydro-3′H-spiro[cyclobutane-1,2′-pyrrolo[2,1-b][1,3]oxazol]-3-yl]oxy}methyl)phenyl]cyclopropane-1-carbonitrile] | 0.012
O=C1N2[C@@H](CC[C@H]2c2cc(F)cc(F)c2)OC12CC(Oc1ccnc3c(F)cnn13)C2 (single isomer, unassigned) [Example 9.4] | 0.105
O=C1N2[C@@H](CC[C@H]2c2cnccn2)OC12CC(OCc1ccnc3nncn13)C2 (stereo partly drawn) [Example 20.4, (5′S,7a′R)-5′-(pyrazin-2-yl)-3-[([1,2,4]triazolo[4,3-a]pyrimidin-5-yl)methoxy]tetrahydro-3′H-spiro[cyclobutane-1,2′-pyrrolo[2,1-b][1,3]oxazol]-3′-one] | 0.179
